ChEMBL document CHEMBL4007498, “Design and synthesis of hybrids of diarylpyrimidines and diketo acids as HIV-1 inhibitors” (Bioorg Med Chem Lett, 2017)

Legend:
[1] = target: Human immunodeficiency virus type 1 reverse transcriptase (Human immunodeficiency virus 1, UniProt Q72547); experiment: Inhibition of recombinant wild type HIV-1 reverse transcriptase p66/p51 using poly(rA)/oligo(dT)16 as template/primer after 40 mins by ELISA
[2] = Selectivity index, ratio of CC50 for human MT4 cells to EC50 for wild type HIV1 3B; format: toxicity; conditions: read-out: Ratio CC50/EC50
[3] = Cytotoxicity against human MT4 cells assessed as decrease in cell viability after 5 days by MTT assay; format: cell-based
[4] = tested on: Human immunodeficiency virus 2; experiment: Antiviral activity against HIV2 ROD infected in human MT4 cells assessed as inhibition of viral replication after 5 days by MTT assay; format: functional, cell-based; conditions: Human immunodeficiency virus 2, ISOLATE ROD, MT4, 120 h
[5] = tested on: Human immunodeficiency virus 1; experiment: Antiviral activity against wild type HIV1 3B infected in human MT4 cells assessed as inhibition of viral replication after 5 days by MTT assay; format: functional, cell-based; conditions: Human immunodeficiency virus 1, 3B, MT4, 120 h
[6] = tested on: Human immunodeficiency virus 1; experiment: Antiviral activity against HIV1 harboring reverse transcriptase F227L/V106A double mutant infected in human MT4 cells assessed as inhibition of viral replication after 5 days by MTT assay; format: functional, cell-based; conditions: Human immunodeficiency virus 1, MT4, 120 h
[7] = tested on: Human immunodeficiency virus 1; experiment: Antiviral activity against HIV1 harboring reverse transcriptase L100I mutant infected in human MT4 cells assessed as inhibition of viral replication after 5 days by MTT assay; format: functional, cell-based; conditions: Human immunodeficiency virus 1, MT4, 120 h
[8] = tested on: Human immunodeficiency virus 1; experiment: Antiviral activity against HIV1 harboring reverse transcriptase Y188L mutant infected in human MT4 cells assessed as inhibition of viral replication after 5 days by MTT assay; format: functional, cell-based; conditions: Human immunodeficiency virus 1, MT4, 120 h
[9] = tested on: Human immunodeficiency virus 1; experiment: Antiviral activity against HIV1 harboring reverse transcriptase E138K mutant infected in human MT4 cells assessed as inhibition of viral replication after 5 days by MTT assay; format: functional, cell-based; conditions: Human immunodeficiency virus 1, MT4, 120 h
[10] = tested on: Human immunodeficiency virus 1; experiment: Antiviral activity against HIV1 harboring reverse transcriptase Y181C mutant infected in human MT4 cells assessed as inhibition of viral replication after 5 days by MTT assay; format: functional, cell-based; conditions: Human immunodeficiency virus 1, MT4, 120 h
[11] = tested on: Human immunodeficiency virus 1; experiment: Antiviral activity against HIV1 RES056 harboring reverse transcriptase K103N/Y181C double mutant infected in human MT4 cells assessed as inhibition of viral replication after 5 days by MTT assay; format: functional, cell-based; conditions: Human immunodeficiency virus 1, RES056, MT4, 120 h
[12] = tested on: Human immunodeficiency virus 1; experiment: Antiviral activity against HIV1 harboring reverse transcriptase K103N mutant infected in human MT4 cells assessed as inhibition of viral replication after 5 days by MTT assay; format: functional, cell-based; conditions: Human immunodeficiency virus 1, MT4, 120 h

Row | SMILES | IC50 [1] | selectivity ratio [2] | CC50 at 120 h [3] | EC50 [4] | EC50 [5] | EC50 [6] | EC50 [7] | EC50 [8] | EC50 [9] | EC50 [10] | EC50 [11] | EC50 [12]
1 | O=C(O)/C(O)=C/C(=O)c1cccc(Cc2ccccc2)c1 | > 100 µM | > 61 | > 10 µM |  |  |  |  |  |  |  |  | 
2 | O=C(O)C(=O)CC(=O)c1cccc(O)c1 |  | < 1 | 528 µM | > 528 µM | > 528 µM |  |  |  |  |  |  | 
3 | N#Cc1ccc(Nc2nccc(Oc3ccc(C(=O)CC(=O)C(=O)O)cc3)n2)cc1 | 25.2 µM | 182 to 183 | 42 µM | > 28 µM | 0.23 µM | > 48 µM | > 48 µM | > 48 µM | 10 µM | > 48 µM | 42 to 48 µM | 42 to 48 µM
4 | N#Cc1ccc(Nc2nccc(Oc3cccc(C(=O)CC(=O)C(=O)O)c3)n2)cc1 | 5.93 µM | 71 to 442 | 10 to 62 µM | > 8 µM | 0.14 µM | 59 µM | > 10 µM | > 10 µM | 43 µM | 50 µM | 9 to 10 µM | 38 µM
5 | CCOC(=O)C(=O)CC(=O)c1cccc(O)c1 |  | < 1 | 356 to 364 µM | > 357 µM | 356 to 357 µM |  |  |  |  |  |  | 
6 | CCOC(=O)C(=O)CC(=O)c1cccc(Oc2ccnc(Nc3ccc(C#N)cc3)n2)c1 | 6.06 µM | 78 | 14 µM | > 10 µM | 0.18 µM | > 13 µM | > 13 µM | > 13 µM | 10 µM | > 13 µM | 13 to 14 µM | 13 to 14 µM
7 | CCOC(=O)C(=O)CC(=O)c1ccc(O)cc1 |  | < 1 | 466 µM | > 312 µM | > 466 µM |  |  |  |  |  |  | 
8 | O=C(O)C(=O)CC(=O)c1ccc(O)cc1 |  | 1 | > 600 µM | > 600 µM | > 600 µM |  |  |  |  |  |  | 
9 | CCOC(=O)C(=O)CC(=O)c1ccc(Oc2ccnc(Nc3ccc(C#N)cc3)n2)cc1 | 5.86 µM | 95 | 18 µM | > 16 µM | 0.19 µM | > 22 µM | > 22 µM | > 22 µM | 7 µM | > 22 µM | 18 to 22 µM | 10 µM
10 | O=C1Nc2ccc(Cl)cc2[C@@](C#CC2CC2)(C(F)(F)F)O1 [EFAVIRENZ] |  | 1720 to 2510 | 9 to 9.3 µM |  | 0.0037 to 0.0054 µM | 0.13 µM | 0.038 µM | 0.17 µM | 0.0047 µM | 0.0054 µM | 0.12 to 0.17 µM | 0.12 to 0.17 µM
11 | Cc1cc(C#N)cc(C)c1Oc1nc(Nc2ccc(C#N)cc2)nc(N)c1Br [ETRAVIRINE] |  |  | 4.6 to 5 µM |  | 0.0033 µM | 0.022 µM |  | 0.022 µM | 0.015 µM |  | 0.03 µM | 0.0036 to 0.004 µM
12 | Cc1ccnc2c1NC(=O)c1cccnc1N2C1CC1 [NEVIRAPINE] |  | > 179 | > 15 µM |  | 0.084 µM | > 15 µM | 1.8 µM | > 15 µM | 0.21 µM | > 15 µM | > 15 µM | > 15 µM
13 | Cc1cn([C@H]2C[C@H](N=[N+]=[N-])[C@@H](CO)O2)c(=O)[nH]c1=O [ZIDOVUDINE] |  | 971 to 974 | 7 to 7.5 µM |  | 0.0077 µM | 0.0035 µM | 0.0052 µM | 0.007 µM | 0.009 µM | 0.0057 µM | 0.008 to 0.01 µM | 0.016 µM
